Our source for the Activity values is ChEMBL document CHEMBL1153462, “Ulmosides A and B: flavonoid 6-C-glycosides from Ulmus wallichiana, stimulating osteoblast differentiation assessed by alkaline phosphatase” (Bioorg Med Chem Lett, 2009).

One assay relates to Osteoblast. The experiment in a line: Osteogenic activity in neonatal Sprague-Dawley rat osteoblasts assessed as stimulation of alkaline phosphatase activity at 100 pM to 10 nM. Format: functional, cell-based.
For a further assay, the system named is Calvarial cell. The experiment in a line: Osteogenic activity in neonatal Sprague-Dawley rat calvarial cell culture assessed as stimulation of differentiation. It counts as functional, cell-based.

The source made the active and inactive calls. The rule behind the calls is not given here.

In the case of `O=c1c(O)c(-c2ccc(O)c(O)c2)oc2cc(O)c([C@@H]3O[C@H](CO)[C@@H](O)[C@H](O)[C@H]3O)c(O)c12`, the outcome in the assay with Osteoblast and in the assay with Calvarial cell was Active.
As to `O=C1c2c(cc(O)c([C@@H]3O[C@H](CO)[C@@H](O)[C@H](O)[C@H]3O)c2O)O[C@@H](c2ccc(O)c(O)c2)[C@@H]1O`, the result in the assay with Osteoblast and in the assay with Calvarial cell was Active.
On to `O=C1c2c(cc(O)c([C@@H]3O[C@H](CO)[C@@H](O)[C@H](O)[C@H]3O)c2O)O[C@@H](c2ccc(O)cc2)[C@@H]1O`, for which the result in the assay on Osteoblast and in the assay on Calvarial cell was Active.
Turning to `O=C1C[C@H](c2ccc(O)cc2)Oc2cc(O)c([C@@H]3O[C@H](CO)[C@@H](O)[C@H](O)[C@H]3O)c(O)c21`, the result with Osteoblast and in the assay with Calvarial cell was Active.
